pIC50: −log10 of the molar value.

Chain of IDO1 (P14902 whole entry): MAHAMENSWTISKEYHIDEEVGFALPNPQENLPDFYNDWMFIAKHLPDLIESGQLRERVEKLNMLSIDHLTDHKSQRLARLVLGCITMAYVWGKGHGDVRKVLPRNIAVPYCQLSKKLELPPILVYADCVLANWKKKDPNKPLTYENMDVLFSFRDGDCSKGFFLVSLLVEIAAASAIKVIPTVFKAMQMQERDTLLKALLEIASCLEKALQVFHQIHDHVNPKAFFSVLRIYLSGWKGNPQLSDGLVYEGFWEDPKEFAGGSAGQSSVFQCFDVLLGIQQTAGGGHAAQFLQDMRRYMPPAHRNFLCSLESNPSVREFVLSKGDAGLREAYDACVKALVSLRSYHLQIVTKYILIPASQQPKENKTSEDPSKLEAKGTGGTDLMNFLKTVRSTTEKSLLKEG

The assay concerns the target IDO1 (Homo sapiens, UniProt P14902). Description: IDO1 Cellular Assay in HeLa Cells Stimulated with IFNγ. Format: cell-based. The note with it: read-out: HeLa Cell Potency, IC50. How it is done: IDO1 Cellular Assay in HeLa Cells Stimulated with IFNγ
HeLa cells were cultured in complete HeLa culture medium (90% EMEM, 10% heat-inactivated fetal bovine serum) and expanded to about 1×10^9 cells. The cells were then collected and frozen down at 1×10^7 cells/vial in 1 mL frozen medium (90% complete HeLa culture medium, 10% DMSO).
Compounds to be tested were serially diluted in ten 3-fold steps in DMSO starting from 10 mM DMSO stocks in Echo low volume plate(s). Compound dilutions or DMSO alone were then dispensed from the dilution plate(s) into Greiner black 384-well assay plate(s) (catalog #781086, 50 nL/well) using an Echo 550 acoustic liquid handler (Labcyte).
Frozen HeLa cells were thawed and transferred into HeLa assay medium (99% complete HeLa culture medium, 1% Pen/Strep) with 20 mL medium/vial of cells. The cells were spun down at 250 g in a table top centrifuge for 5 min and suspended in same volume of HeLa assay medium. The cells were then counted and adjusted to a density of 2×10^5 cells/mL in HeLa assay medium. Sterile L-tryptophan were added to the cells with final concentration of 300 uM L-tryptophan. A small aliquot (2 mL/plate) of HeLa cells were set aside and were not treated with IFNγ, to serve as the Max-E control.
HeLa cells with and without IFNγ were dispensed to the respective wells of 384-well assay plates containing the compounds. The plates were incubated for about 48 hours at a 37° C., 5% CO2 incubator. Afterwards, 12 μL of 0.5 M methyl isonipecotate in dimethyl sulfoxide were added into each well and the plates were sealed and incubated at 37° C. without CO2 overnight. The plates were centrifuged for 1 min at 200×g. The resulting fluorescence was measured in a Spectramax plate reader (Molecular Devices) with a 400 nm excitation filter and a 510 nm emission filter.
The fluorescence intensity of each well was corrected for the background observed in wells with non-IFNγ-treated cells and was expressed as a fraction of the intensity observed in wells of IFNγ-treated cells and DMSO only. Potencies were calculated by linear least squares fit to the four parameter logistic IC50 equation.
Turning to `O=C(Cn1nc(C(=O)N2CCC(O)CC2)c2c1CCC2)N1CCN(C2CCCc3ccccc32)CC1` (single isomer, unassigned) [Example 430], the pIC50 – broadly, the negative decadic logarithm of the IC50, by convention in mol/L – was 6.74.
Regarding `O=C(Cn1nc(C(=O)N2CCC(O)CC2)c2c1CCC2)N1CCN(C2CCCc3ccccc32)CC1` (single isomer, unassigned) [Example 431], the pIC50 is 5.46.
In the case of `O=C(Cn1nc(C(=O)N2CCC(O)CC2)c2c1CCC2)N1CCN(C2CCc3ccccc32)CC1` (single isomer, unassigned) [Example 436, 1-(4-(2,3-dihydro-1H-inden-1-yl)piperazin-1-yl)-2-(3-(4-hydroxypiperidine-1-carbonyl)-5,6-dihydrocyclopenta[c]pyrazol-1(4H)-yl)ethanone] it was 7.64; in that of `O=C(Cn1nc(C(=O)N2CCC(O)CC2)c2c1CCC2)N1CCN(C2CCc3ccccc32)CC1` (single isomer, unassigned) [Example 437, 1-(4-(2,3-dihydro-1H-inden-1-yl)piperazin-1-yl)-2-(3-(4-hydroxypiperidine-1-carbonyl)-5,6-dihydrocyclopenta[c]pyrazol-1(4H)-yl)ethanone], 6.09.
In the case of `O=C(Cn1nc(C(=O)N2CC[C@H](O)[C@H](F)C2)c2c1CCC2)N1CCN(C2CCc3ccccc32)CC1` (single isomer, unassigned) [Example 439], the pIC50 is 6.77.
The value for `O=C(Cn1nc(C(=O)N2CC[C@H](O)[C@H](F)C2)c2c1CCC2)N1CCN(C2CCc3ccccc32)CC1` (single isomer, unassigned) [Example 440] was 5.60.
Turning to `Cc1cccc(N2CCN(C(=O)Cn3nc(C(=O)N4CCC(O)(CF)C4)c4c3CCC4)CC2)c1C` (single isomer, unassigned) [Example 482, (R or S)-1-(4-(2,3-dimethylphenyl)piperazin-1-yl)-2-(3-(3-(fluoromethyl)-3-hydroxypyrrolidine-1-carbonyl)-5,6-dihydro-cyclopenta[c]pyrazol-1(4H)-yl)ethanone], the pIC50 is 7.65.
As for `Cc1cccc(N2CCN(C(=O)Cn3nc(C(=O)N4CCC(O)(CF)C4)c4c3CCC4)CC2)c1C` (single isomer, unassigned) [Example 484, (S or R)-1-(4-(2,3-dimethylphenyl)piperazin-1-yl)-2-(3-(3-fluoromethyl)-3-hydroxypyrrolidine-1-carbonyl)-5,6-dihydrocyclopenta[c] pyrazol-1(4H)-yl) ethanone], the negative logarithm of the IC50 (pIC50) is 7.37.
The value for `Cc1cccc(N2CCN(C(=O)C(C)n3nc(C(=O)N4CCC(O)CC4)c4c3CCC4)CC2)c1C` (single isomer, unassigned) [Example 489, (R or S)-1-(4-(2,3-dimethylphenyl)piperazin-1-yl)-2-(3-(4-hydroxypiperidine-1-carbonyl)-5,6-dihydro-cyclopenta[c]pyrazol-1(4H)-yl)propan-1-one] was 6.41.
In the case of `Cc1cccc(N2CCN(C(=O)Cn3nc(C(=O)N4CC[C@H](N5CCC(O)CC5)[C@H](F)C4)c4c3CC(F)(F)CC4)CC2)c1C` (stereo in doubt) [Example 23, 2-[6,6-difluoro-3-[rac-(3R,4S)-3-fluoro-4-(4-hydroxy-1-piperidyl)piperidine-1-carbonyl]-5,7-dihydro-4H-indazol-1-yl]-1-[4-(2,3-dimethylphenyl)piperazin-1-yl]ethanone] it was 7.11; in that of `Cc1cccc(N2CCN(C(=O)Cn3nc(C(=O)N4CC[C@@H](N5CCC(O)CC5)[C@@H](F)C4)c4c3CC(F)(F)CC4)CC2)c1C` (stereo in doubt) [Example 24, 2-[6,6-difluoro-3-[rac-(3S,4R)-3-fluoro-4-(4-hydroxy-1-piperidyl)piperidine-1-carbonyl]-5,7-dihydro-4H-indazol-1-yl]-1-[4-(2,3-dimethylphenyl)piperazin-1-yl]ethanone], 6.71.
In the case of `Cc1c(Cl)cccc1N1CCN(C(=O)Cn2nc(C(=O)N3CC[C@H](O)C(C)C3)c3c2C[C@H]2C[C@@H]32)CC1` (stereo in doubt) [Example 351, 1-(4-(3-chloro-2-methylphenyl)piperazin-1-yl)-2-((3bR,4aR)-3-((3S,4S)-4-hydroxy-3-methylpiperidine-1-carbonyl)-3b,4,4a,5-tetrahydro-1H-cyclopropa[3,4]cyclopenta[1,2-c]pyrazol-1-yl)ethanone] it was 8.90.
As for `Cc1c(Cl)cccc1N1CCN(C(=O)Cn2nc(C(=O)N3CCC(O)C(C)C3)c3c2C[C@H]2C[C@@H]32)CC1` (stereo in doubt) [Example 353, 1-(4-(3-chloro-2-methylphenyl)piperazin-1-yl)-2-((3bR,4aR)-3-((3R,4S)-4-hydroxy-3-methylpiperidine-1-carbonyl)-3b,4,4a,5-tetrahydro-1H-cyclopropa[3,4]cyclopenta[1,2-c]pyrazol-1-yl)ethanone], the pIC50 is 8.93.
The value for `Cc1cccc(N2CCN(C(=O)Cn3nc(C(=O)N4CCC(O)C(F)C4)c4c3C[C@H]3C[C@@H]43)C3(CC3)C2)c1C` (stereo in doubt) [Example 361, 1-(7-(2,3-dimethylphenyl)-4,7-diazaspiro[2.5]octan-4-yl)-2-((3bR,4aR)-3-((3S,4S)-3-fluoro-4-hydroxypiperidine-1-carbonyl)-3b,4,4a,5-tetrahydro-1H-cyclopropa[3,4]cyclopenta[1,2-c]pyrazol-1-yl)ethanone] was 8.52.
In the case of `Cc1cccc(N2CCN(C(=O)Cn3nc(C(=O)N4CCCC4)c4c3CC(C)(C)CC4)CC2)c1C` [Example 3, 1-[4-(2,3-dimethylphenyl)piperazin-1-yl]-2-[6,6-dimethyl-3-(pyrrolidine-1-carbonyl)-5,7-dihydro-4H-indazol-1-yl]ethanone] it was 6.89; in that of `Cc1cccc(N2CCN(C(=O)Cn3nc(C(=O)N4CCCC4)c4c3CCOC4)CC2)c1C` [Example 4, 1-[4-(2,3-dimethylphenyl)piperazin-1-yl]-2-[3-(pyrrolidine-1-carbonyl)-6,7-dihydro-4H-pyrano[4,3-c]pyrazol-1-yl]ethanone], 6.78; in that of `Cc1cccc(N2CCN(C(=O)Cn3nc(C(=O)N4CCCC4)c4c3CCC(F)(F)C4)CC2)c1C` [Example 6, 2-(5,5-difluoro-3-(pyrrolidine-1-carbonyl)-4,5,6,7-tetrahydro-1H-indazol-1-yl)-1-(4-(2,3-dimethylphenyl)piperazin-1-yl)ethanone], 8.09.
In the case of `Cc1cccc(N2CCN(C(=O)Cn3nc(C(=O)N4CC[C@H](O)[C@H](F)C4)c4c3C(F)(F)CCC4)CC2)c1C` [Example 20, 2-(7,7-Difluoro-3-((3R,4S)-3-fluoro-4-hydroxypiperidine-1-carbonyl)-4,5,6,7-tetrahydro-1H-indazol-1-yl)-1-(4-(2,3-dimethylphenyl)piperazin-1-yl)ethanone] it was 6.42; in that of `Cc1cccc(N2CCN(C(=O)Cn3nc(C(=O)N4CCC(O)CC4)c4c3CC(F)(F)CC4)CC2)c1C` [Example 21, 2-(6,6-difluoro-3-(4-hydroxypiperidine-1-carbonyl)-4,5,6,7-tetrahydro-1H-indazol-1-yl)-1-(4-(2,3-dimethylphenyl)piperazin-1-yl)ethanone], 8.29; in that of `Cc1cccc(N2CCN(C(=O)Cn3nc(C(=O)N4CCN(C(=O)CO)CC4)c4c3CC(F)(F)CC4)CC2)c1C` [Example 22, 2-[6,6-difluoro-3-[4-(2-hydroxyacetyl)piperazine-1-carbonyl]-5,7-dihydro-4H-indazol-1-yl]-1-[4-(2,3-dimethylphenyl)piperazin-1-yl]ethanone], 7.56.

The values above are taken from US12264134B2 (Merck Sharp & Dohme LLC, priority 2018, dated 2025).
